Where “and” joins values, the source holds several entries; their conditions need not be identical. Equal values may be shown once. Read-outs that look alike come from different tables or passages of the source. Marks after values point to notes of the source that are not given here.
Tests used:
[1] = test system: HeLa cells
[2] = test system: VSV-GFP; type: cell-based, Vesicular Stomatitis Virus
[3] = test system: MxA; type: cell-based, human; conditions: 24 hrs
[4] = test system: Nup98; assay: cells; type: cell-based; conditions: Homo sapiens, HeLa, 24 hrs, read-out: Nup98 protein level, % of control
[5] = test system: Rae1; assay: cells; type: cell-based; conditions: Homo sapiens, HeLa, 24 hrs, read-out: Rae1 protein level, % of control
[6] = test system: Flotillin-1; assay: cells; type: cell-based, human
[7] = test system: VSV-GFP; assay: microbe, parasite or virus in culture; type: cell-based, Vesicular Stomatitis Virus

CC[C@H](C)C(=O)O[C@H]1C[C@@H](C)C=C2C=C[C@H](C)[C@H](CC[C@@H]3C[C@@H](O)CC(=O)O3)[C@H]21 [lovastatin]
Cell survival [1]: ~30%
Toxicity to HeLa cells [1]: highly toxic

CC[C@H](C)C(=O)O[C@H]1C[C@H](O)C=C2C=C[C@H](C)[C@H](CC[C@@H](O)C[C@@H](O)CC(=O)O)[C@H]21 [pravastatin]
Cell death rate, slope d [1]: −1.20 % cells/μM Prava
Cell death rate, slope c ([1]; human): −1.78 % cells/μM Prava

CCC(C)(C)C(=O)O[C@H]1C[C@@H](C)C=C2C=C[C@H](C)[C@H](CC[C@@H]3C[C@@H](O)CC(=O)O3)[C@H]21 [simvastatin]
Pretreatment time required to inhibit VSV protein levels [2]: ≥ 4 h
MxA protein levels ([3]; 0.125 μM): ~400%
MxA protein levels ([3]; 0.5 μM): 650%
MxA protein levels ([3]; 2.0 μM): 150%
activity at 0.125 µM ([4]; 0.125 μM): 180%
activity at 0.5 µM ([4]; 0.5 μM): 240%
activity at 2 µM ([4]; 2.0 μM): 260%
activity at 0.125 µM ([5]; 0.125 μM): 196%
activity at 0.5 µM ([5]; 0.5 μM): 310%
activity at 2 µM ([5]; 2.0 μM): 390%
Flotillin-1 levels, % of control ([6]; 0.125 µM): ~160% and ~100%
Flotillin-1 levels, % of control ([6]; 0.5 µM): ~90%
activity at 0.5 µM ([6]; Homo sapiens, HeLa, read-out: Flotillin-1 levels, % of control): ~75%
Decrease of pfu in log-units [7]: 2 log-units
Fold lower pfu than control VSV-infected cells [7]: 660 fold
Pfu values (viral titer of supernatant) [7]: 1.80×10^4 (+/−3×10^3) pfu/ml
IC50 ([7]; Vesicular stomatitis virus, HeLa, read-out: Concentration needed for reduction of pfu values to half of control (IC50)): 278 nM
Cell death rate (Δ% cell death per ΔμM), slope b [1]: −2.61 % cells/μM Sim
Slope a (m), relative trend of cell survival, FIG. 18 ([1]; 0.125-2 μM 8 hrs): −6.54
Slope b (m), relative trend of cell survival, FIG. 18 ([1]; 0.125-2 μM 8 hrs): −10.46
Cell death rate (Δ% cell death per ΔμM), slope a ([1]; human): −1.63 % cells/μM Sim

Methyl-β-cyclodextrin [MβCD]
VSV G protein level, % of VSV control infection [2]: 150% and 195% and 247% and 182% and 210%
VSV N/P protein level, % of VSV control infection [2]: 153% and 220% and 150% and 275% and 147% and 162%
Attenuation of viral titers by pretreatment [7]: attenuated
Fold decrease of VSV titers [7]: 160 fold
VSV titer after pretreatment [7]: 5.25×10^4 (+/1−5.5×10^3) pfu/ml
Cell survival [1]: ~20%
Toxicity to HeLa cells [1]: highly toxic

Reference: patent publication US9289456B2 (priority 2010, dated 2016)
